Where two headings read alike, the source gives them in different places.
Legend:
[1] = tested on: murine model of endotoxin shock; details: Hagmann et al., 1982; cited from earlier work
[2] = tested on: A375 melanoma cells; assay: tumoricidal activity of LPS-treated human monocytes in the kill of A375 melanoma cells; assay type: cell-based; details: 10^-5 to 10^-8 M
[3] = immunosuppressive effect
[4] = tested on: IL-1 production by splenic adherent cells; assay: adjuvant-induced arthritis in the rat: IL-1 production by LPS-stimulated splenic adherent cells; assay type: in vivo; details: for IL-1 Production (splenic adherent cells), % normal control: mg/kg: Compound 1 60, indomethacin 2.0, prednisolone 10, methotrexate 0.3, D-penicillamine 50
Description: (§1) Adjuvant-induced arthritis in the rat is a model of systemic inflammation with characteristics similar to rheumatoid arthritis in man. […] This model was employed to assess the effect of Compound 1 in vivo on this elevated IL-1 production. Briefly, rats were injected on day 0 with Freund's complete adjuvant in the right hind leg. Drugs were prepared as a suspension in tragacanth and administered daily per os either prophylactically (days 1 to 16) or therapeutically in a short-term modality (days 14 to 16). In all cases, final administration of drug occurred at 3 hours prior to sacrifice. Spleens were removed from these rats and the adherent cells were assessed for their ability to produce IL-1 in vitro in response to stimulation by LPS.
(§2) PROPHYLACTIC TREATMENT: Drugs were administered daily p.o. as a suspensio
(§3) in tragacanth from day 1 to day 16. Final dose given 3 hrs before
(§4) TREATMENT: Drugs were administered daily p.o. as above from
(§5) day 14 to day 16. Final dose given 3 hrs before sacrifice.
(§6) ***P < 0.01 Indomethacin 2.0 mg/kg
(§7) **P < 0.05 Compound 1 60 mg/kg
(§8) *P < 0.10 Prednisolone 10 mg/kg
(§9) D-Penicillamine 50 mg/kg

[5] = tested on: endotoxin shock in C57B1/6 mice; assay type: in vivo, mouse; details: mouse, in vivo
Description: Mice are very resistant to the lethal effects of bacterial lipopolysaccharides (LPS). D-Galactosamine (D-GALN) induces a high degree of sensitization to the lethal effects of LPS in mice and other experimental animals. [See, Galanos et al., Proc. Natl. Acad Sci. USA., 76, 5939 (1979)]. In mice, depending on the strain and age, the sensitivity to endotoxin can be increased many thousand-fold.
A number of preliminary experiments were carried out to establish this model of lethal endotoxin shock.

[6] = tested on: monocytes; assay: in vitro; assay type: cell-based, human
Description: (§10) Bacterial lipopolysaccharide (LPS) was used to induce IL-1 production by human peripheral blood monocytes. IL-1 activity was measured by its ability to stimulate a Interleukin 2 (IL-2) producing cell line (EL-4) to secrete IL-2, in concert with A23187 ionophore, according to the method of Simon et al., J. Immunol. Methods, 84, 85, (1985). Human peripheral blood monocytes were isolated and purified from either fresh blood preparations from volunteer donors, or from blood Bank buffy coats, according to the procedure of Colotta et al., J. Immunol., 132, 936 (1984). 1×10^6 of such monocytes are plated in 24-well plates at a concentration of 2 million/ml per well. The cells were allowed to adhere for 2 hours, after which time non-adherent cells were removed by gentle washing. Test compounds were then added to the cells for 1 hour (hr) before the addition of lipopolysaccharide (10 ng/ml unless otherwise noted), and the cultures were incubated at 37° C. for an additional 24 hours. At the end of the incubation period, culture supernatants were removed and clarified of cells and all debris. Culture supernatants were immediately assayed for IL-1 biological activity as well as prostaglandin and/or leukotriene concentrations by radioimmunoassay.
^(b) At doses at or above 10^-5 M, this compound exerted some

[7] = tested on: human peripheral blood lymphocytes; assay: lectin-stimulated mitogenesis of human peripheral blood lymphocytes; assay type: cell-based
[8] = tested on: alpha interferon; assay: alpha interferon (other inducible proteins) production; assay type: cell-based
[9] = tested on: PGE2; assay: in vitro prostaglandin (PGE2) synthesis by LPS-stimulated human monocytes, RIA; assay type: cell-based; details: for inhibition at 10 µM / inhibition at 1 µM / inhibition at 0.1 µM: Homo sapiens, Monocyte, read-out: % Inhibition PGE2
Description: as §10
^(c) PGE2 was assayed using an RIA kit.

[10] = tested on: IL-1 production by human monocytes; assay: in vitro IL-1 production by LPS-stimulated human peripheral blood monocytes (EL-4 readout); assay type: cell-based
Description: The effects of antiinflammatory/antiarthritic drugs of different classes, including Compound 1 on the in vitro production of IL-1 by human monocytes was examined.
as §10
^(a) All compounds, except chloroquine, were dissolved in absolute
ethanol at 10^-2 M, which was subsequently diluted further in tissue
assay system at doses tested. Furthermore, test samples were dialyzed
prior to testing in the IL1 assay.
In order to elucidate the mechanism by which Compound 1 mediates its anti-inflammatory activity, the ability of this compound and two closely related analog metabolites, (i.e., the analogs of Compound 1 wherein X is S(0)n and n is 1 or 2) to inhibit human IL-1 production in vitro was evaluated according to the method of Example 1. Briefly, 1×10^6 human peripheral blood monocytes were plated in 24-well plates and allowed to adhere for 1 hr at 37° C. The above compounds were added to a final concentration of 10^-5 M to 10^-8 M. The monocytes were stimulated to produce IL-1 with 1 ng/ml LPS after a 1 hr pretreatment of the cells with the respective compounds.
The inhibitory effect of additional compounds of Formula (I) on the in vitro production of IL-1 production of IL-1 by human monocytes was determined according to the procedure of Examples 1 and 2.

[11] = tested on: adjuvant-induced arthritis in the rat; assay: adjuvant-induced arthritis in the rat: right leg paw edema; assay type: in vivo; details: mg/kg: Compound 1 60, indomethacin 2.0, prednisolone 10, methotrexate 0.3, D-penicillamine 50
Description: as §1, §2, §3, §4, §5, §6, §7, §8, §9

[12] = tested on: EL-4/CTLL assay; assay: direct effect on IL-1 standard in EL-4/CTLL readout assay; assay type: cell-based
Description: as §10
Inhibition of IL-1 production by Compound 1 is not due to a carryover effect of the drug on the cells sed in the IL-1 readout assay. […]

[13] = tested on: IL-2; assay: IL-2 production or response; assay type: cell-based
[14] = tested on: splenic adherent cells; assay: adjuvant-induced arthritis in the rat: % splenic adherent cells; assay type: in vivo; details: mg/kg: Compound 1 60, indomethacin 2.0, prednisolone 10, methotrexate 0.3, D-penicillamine 50
Description: as §1, §2, §3, §4, §5, §6, §7, §8, §9

[15] = tested on: IL-1 production by human monocytes; details: Lipsky, Amer. J. Med. 75, Supp. 1A, 19 (1983); cited from earlier work
[16] = prophylactic, daily p.o. days 1-16
[17] = therapeutic, daily p.o. days 14-16
[18] = Homo sapiens, Monocyte, read-out: % Inhibition IL-1

SMILES: Clc1ccc(C(c2ccc(Cl)cc2)n2cc[n+](CC(OCc3ccc(Cl)cc3Cl)c3ccc(Cl)cc3Cl)c2)cc1 (stereo not shown) [calmidazolium]
- prevention of endotoxin lethality [1]: prevented endotoxin lethality

SMILES: Fc1ccc(-c2nc3n(c2-c2ccncc2)CCS3)cc1 [Compound 1]
- effect on monocyte tumoricidal activity [2]: did not effect that biological activity
- immunosuppressive effect [3]: not immunosuppressive
- decrease in IL-1 production ([4]; prophylactic administration): more dramatic decrease in IL-1 production than indomethacin which resulted in nearly complete normalization of this parameter
- IL-1 Production (splenic adherent cells), % normal control [4, 16]: 139 ± 28 % normal control
- IL-1 Production (splenic adherent cells), % normal control [4, 17]: 392 ± 129 % normal control
- effect in adjuvant arthritic rats ([4]; therapeutic, short-term treatment): no effect
- protection from lethal effects of LPS/GALN [5]: protected the animals from the lethal effects of LPS/GALN
- nonspecific toxic effect on other functions of activated monocytes [6]: does not exert a nonspecific toxic effect on other functions of activated monocytes
- inhibition of lectin-stimulated mitogenesis [7]: does not inhibit lectin-stimulated mitogenesis
- effect on other inducible proteins such as alpha interferon [8]: not effected
- inhibition at 10 µM ([9]; 10^-5 M): 99%
- inhibition at 1 µM ([9]; 10^-6 M): 94%
- inhibition at 0.1 µM ([9]; 10^-7 M): 79%
- inhibition of prostaglandin synthesis ([9]; submicromolar range (10^-7 M)): greater than 80%
- dose dependence of IL-1 production inhibition [10]: dose dependent
- inhibition of IL-1 production [10]: inhibits IL-1 production
- relative potency against the two analogs ([10]; 1 ng/ml LPS): slightly more potent than the two analogs tested
- IC50 ([10]; Homo sapiens, Monocyte, 1 ng/ml LPS, 1 hr pretreatment): 250 nM
- inhibition at 10 µM ([10]; Homo sapiens, Monocyte, 10^-5 M, read-out: % Inhibition IL-1): 99%
- inhibition at 1 µM ([10]; Homo sapiens, Monocyte, 10^-6 M, wide range of LPS, read-out: inhibition of IL-1 production): ~80%
- inhibition at 1 µM ([10]; Homo sapiens, Monocyte, 10^-6 M, Table 3, read-out: % Inhibition @ 10^-6 M): 70%
- inhibition at 1 µM ([10]; Homo sapiens, Monocyte, 10^-6 M, read-out: % Inhibition IL-1): 96%
- inhibition at 0.1 µM ([10]; Homo sapiens, Monocyte, 10^-7 M, wide range of LPS, read-out: inhibition of IL-1 production): ~40%
- inhibition at 0.1 µM ([10]; Homo sapiens, Monocyte, 10^-7 M, read-out: % Inhibition IL-1): 88%
- inhibition of IL-1 production ([10]; submicromolar range (10^-7 M)): greater than 80%
- inhibition of IL-1 production induced by a variety of activators ([10]; variety of activators): inhibits IL-1 production induced by a variety of activators
- Right leg paw edema, % normal control [11, 16]: 134 ± 9 % normal control
- Right leg paw edema, % normal control [11, 17]: 159 ± 7 % normal control
- effect on the IL-1 assay system ([12]; 10^-5 or higher): had an effect on the assay system
- direct effect on the IL-1 assay ([12]; lower doses / doses tested): no direct effect on the IL-1 assay
- inhibition of IL-2 production ([13]; IL-2 production): does not inhibit either IL-2 production or response
- inhibition of IL-2 response ([13]; IL-2 response): does not inhibit either IL-2 production or response
- % Adherent Cells (splenic), % normal control [14, 16]: 98 ± 29 % normal control
- % Adherent Cells (splenic), % normal control [14, 17]: 216 ± 137 % normal control

SMILES: CCN(CC)CCCC(C)Nc1ccnc2cc(Cl)ccc12 (stereo not shown) [Chloroquine]
- inhibition at 0.1 µM [9]: 0%
- inhibition at 1 µM [9]: 0%
- inhibition at 10 µM [9]: 84%
- inhibition of IL-1 production, literature [15]: inhibit IL-1 production
- inhibition at 0.1 µM [10, 18]: 36%
- inhibition at 1 µM [10, 18]: 46%
- inhibition at 10 µM [10, 18]: 89%
- inhibition of IL-1 production ([10]; doses one or two logs higher than Compound 1): only marginally active

From patent US4794114A, “Inhibition of interleukin-1 production by monocytes and/or macrophages” (SmithKline Beckman Corporation, priority 1987, dated 1988)
